Reference: patent US20110166105A1, “ANTIMICROBIAL WASH AND CARRIER SOLUTIONS AND USES THEREOF” (TEVA ANIMAL HEALTH, INC., priority 2002, published 2011)

Assay: Antimicrobial preservative effectiveness (APE), USP 25 test 51
Format: cell-based
Conditions: pH 8.5
Procedure: Various concentrations of benzyl alcohol were tested for antimicrobial preservative effectiveness (APE) using the USP 25 test 51 (U.S. Pharmacopeia 25, U.S. Pharmacopeia, MD (2001)). The formulations below are based on the formulation designated as 940-16 C (with a slightly higher pH) in Example 2 above with varying benzyl alcohol concentrations. The table below summarizes the results of these studies. Antimicrobial activity can be measured by any standard assay known to those of skill in the art (e.g., USP 25 antimicrobial preservative effectiveness (APE) test 51 (U.S. Pharmacopeia 25, U.S. Pharmacopeia, MD (2001)).

OCc1ccccc1 [benzyl alcohol]
USP antimicrobial preservative requirement: meets the USP antimicrobial preservative requirement
